Results reported in publication PMC6430017, “Structural and chemical insights into the covalent-allosteric inhibition of the protein kinase Akt” (Chemical Science, 2019).

Target: PASK (Homo sapiens, UniProt Q96RG2)
Test: SelectScreen Z'LYTE kinase profiling
Type: biochemical
Conditions: ATP at apparent KM
Protocol: (§1) protein kinases at a compound concentration of 1 µM. Measurements were performed in duplicates
(§2) and at the particular apparent ATP KM of each individual kinase employing the activity based Z’LYTE®
(§3) kinase assay of the SelectScreen® Kinase Profiling Services (ThermoFisher Scientific).
(§4) kinases at a compound concentration of 1 µM. Measurements were performed in duplicates and at
(§5) the particular apparent ATP KM of each individual kinase employing the activity based Z’LYTE® kinase
(§6) assay of the SelectScreen® Kinase Profiling Services (ThermoFisher Scientific).

PASK, sequence (Q96RG2 whole entry): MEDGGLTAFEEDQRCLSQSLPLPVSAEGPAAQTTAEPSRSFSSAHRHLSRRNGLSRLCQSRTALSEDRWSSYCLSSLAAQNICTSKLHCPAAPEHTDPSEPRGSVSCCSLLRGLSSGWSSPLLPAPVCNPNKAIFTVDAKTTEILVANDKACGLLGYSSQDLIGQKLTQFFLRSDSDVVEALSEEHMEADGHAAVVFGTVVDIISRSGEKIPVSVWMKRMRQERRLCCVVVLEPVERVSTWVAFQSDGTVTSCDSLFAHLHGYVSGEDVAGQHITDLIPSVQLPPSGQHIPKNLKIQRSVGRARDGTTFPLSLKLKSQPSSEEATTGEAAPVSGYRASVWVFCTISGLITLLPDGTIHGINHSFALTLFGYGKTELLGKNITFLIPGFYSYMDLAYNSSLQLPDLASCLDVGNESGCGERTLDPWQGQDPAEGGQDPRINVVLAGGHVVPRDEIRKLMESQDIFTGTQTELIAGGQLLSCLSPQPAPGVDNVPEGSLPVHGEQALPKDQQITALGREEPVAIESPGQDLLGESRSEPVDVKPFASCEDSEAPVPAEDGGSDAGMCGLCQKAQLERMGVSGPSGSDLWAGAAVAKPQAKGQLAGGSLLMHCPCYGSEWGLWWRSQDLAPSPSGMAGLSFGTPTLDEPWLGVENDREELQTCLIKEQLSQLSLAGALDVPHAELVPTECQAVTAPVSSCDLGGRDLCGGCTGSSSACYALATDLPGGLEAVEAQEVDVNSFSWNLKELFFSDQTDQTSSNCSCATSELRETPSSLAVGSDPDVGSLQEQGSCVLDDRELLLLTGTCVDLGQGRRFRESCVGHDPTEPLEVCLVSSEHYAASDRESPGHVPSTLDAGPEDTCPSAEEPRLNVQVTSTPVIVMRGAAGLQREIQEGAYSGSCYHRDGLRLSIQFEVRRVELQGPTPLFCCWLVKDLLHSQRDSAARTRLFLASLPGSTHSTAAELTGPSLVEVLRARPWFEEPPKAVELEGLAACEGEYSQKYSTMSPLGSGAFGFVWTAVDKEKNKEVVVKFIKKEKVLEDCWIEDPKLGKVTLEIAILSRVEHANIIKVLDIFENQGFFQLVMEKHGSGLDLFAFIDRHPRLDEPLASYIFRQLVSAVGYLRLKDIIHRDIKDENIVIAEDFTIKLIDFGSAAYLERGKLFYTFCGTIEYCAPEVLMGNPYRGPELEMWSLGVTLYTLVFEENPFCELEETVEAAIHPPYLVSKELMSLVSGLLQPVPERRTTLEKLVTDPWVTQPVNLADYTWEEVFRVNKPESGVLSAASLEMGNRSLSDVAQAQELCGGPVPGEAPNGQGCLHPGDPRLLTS

Row | Compound | inhibition at 1 µM
1 | C=CC(=O)Nc1ccc2c(c1)n(C1CCN(Cc3ccc(-c4nc5cc[nH]c(=O)c5cc4-c4ccccc4)cc3)CC1)c(=O)n2C [24b] | 4%

Target: CDK1/cyclin B (Homo sapiens, UniProt P06493)
Test: SelectScreen Z'LYTE kinase profiling
Type: biochemical
Conditions: ATP at apparent KM
Protocol: as §1, §2, §3, §4, §5, §6

Row | Compound | inhibition at 1 µM
2 | C=CC(=O)Nc1ccc2c(c1)n(C1CCN(Cc3ccc(-c4nc5cc[nH]c(=O)c5cc4-c4ccccc4)cc3)CC1)c(=O)n2C [24b] | 3%

Target: SRC (Homo sapiens, UniProt P12931)
Test: SelectScreen Z'LYTE kinase profiling
Type: biochemical
Conditions: ATP at apparent KM
Protocol: as §1, §2, §3, §4, §5, §6

Row | Compound | inhibition at 1 µM
3 | C=CC(=O)Nc1ccc2c(c1)n(C1CCN(Cc3ccc(-c4nc5cc[nH]c(=O)c5cc4-c4ccccc4)cc3)CC1)c(=O)n2C [24b] | 19%

Target: RPS6KA4 (MSK2) (Homo sapiens, UniProt O75676)
Test: SelectScreen Z'LYTE kinase profiling
Type: biochemical
Conditions: ATP at apparent KM
Protocol: as §1, §2, §3, §4, §5, §6

Row | Compound | inhibition at 1 µM
4 | C=CC(=O)Nc1ccc2c(c1)n(C1CCN(Cc3ccc(-c4nc5cc[nH]c(=O)c5cc4-c4ccccc4)cc3)CC1)c(=O)n2C [24b] | 9%

Target: MELK (Homo sapiens, UniProt Q14680)
Sequence (Q14680 whole entry): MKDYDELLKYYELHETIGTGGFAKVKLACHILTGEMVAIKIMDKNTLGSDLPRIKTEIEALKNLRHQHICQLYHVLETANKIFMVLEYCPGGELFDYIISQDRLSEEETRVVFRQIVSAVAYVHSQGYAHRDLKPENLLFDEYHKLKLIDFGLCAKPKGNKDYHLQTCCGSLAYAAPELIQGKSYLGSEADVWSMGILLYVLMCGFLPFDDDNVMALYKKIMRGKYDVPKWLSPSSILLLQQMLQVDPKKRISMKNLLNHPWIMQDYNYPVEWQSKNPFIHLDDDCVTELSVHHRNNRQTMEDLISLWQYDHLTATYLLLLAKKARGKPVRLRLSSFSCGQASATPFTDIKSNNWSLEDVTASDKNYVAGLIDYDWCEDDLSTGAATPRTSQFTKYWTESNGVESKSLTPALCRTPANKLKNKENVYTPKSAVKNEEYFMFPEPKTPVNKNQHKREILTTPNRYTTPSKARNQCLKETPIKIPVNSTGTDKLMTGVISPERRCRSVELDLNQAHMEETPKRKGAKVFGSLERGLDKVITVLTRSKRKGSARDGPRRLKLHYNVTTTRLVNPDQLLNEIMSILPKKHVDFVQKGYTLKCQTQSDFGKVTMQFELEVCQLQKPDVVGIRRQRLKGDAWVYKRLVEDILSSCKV
Test: SelectScreen Z'LYTE kinase profiling
Type: biochemical
Conditions: ATP at apparent KM
Protocol: as §1, §2, §3, §4, §5, §6

Row | Compound | inhibition at 1 µM
5 | C=CC(=O)Nc1ccc2c(c1)n(C1CCN(Cc3ccc(-c4nc5cc[nH]c(=O)c5cc4-c4ccccc4)cc3)CC1)c(=O)n2C [24b] | 48%

Target: T1, PRKCZ (PKC zeta) (Homo sapiens, UniProt Q05513)
T1 sequence (Q05513 1-592): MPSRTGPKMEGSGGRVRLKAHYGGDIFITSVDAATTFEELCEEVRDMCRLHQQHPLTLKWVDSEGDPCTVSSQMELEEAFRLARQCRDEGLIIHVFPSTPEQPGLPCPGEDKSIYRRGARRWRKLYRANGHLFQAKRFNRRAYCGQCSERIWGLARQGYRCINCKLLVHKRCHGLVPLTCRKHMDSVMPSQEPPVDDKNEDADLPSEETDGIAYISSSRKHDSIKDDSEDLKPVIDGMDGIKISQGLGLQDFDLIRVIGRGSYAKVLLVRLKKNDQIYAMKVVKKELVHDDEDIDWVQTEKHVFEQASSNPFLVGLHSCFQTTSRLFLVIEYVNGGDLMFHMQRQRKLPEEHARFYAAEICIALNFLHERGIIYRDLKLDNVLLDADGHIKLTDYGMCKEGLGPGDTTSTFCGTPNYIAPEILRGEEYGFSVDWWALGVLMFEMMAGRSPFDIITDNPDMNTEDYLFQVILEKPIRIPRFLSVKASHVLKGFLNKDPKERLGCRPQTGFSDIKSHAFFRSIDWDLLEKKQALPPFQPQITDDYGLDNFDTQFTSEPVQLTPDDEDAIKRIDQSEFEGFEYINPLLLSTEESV
Test: SelectScreen Z'LYTE kinase profiling
Type: biochemical
Conditions: ATP at apparent KM
Protocol: as §1, §2, §3, §4, §5, §6

Row | Compound | inhibition at 1 µM
6 | C=CC(=O)Nc1ccc2c(c1)n(C1CCN(Cc3ccc(-c4nc5cc[nH]c(=O)c5cc4-c4ccccc4)cc3)CC1)c(=O)n2C [24b] | -3%

Target: FRAP1 (mTOR) (Homo sapiens, UniProt P42345)
Test: SelectScreen Z'LYTE kinase profiling
Type: biochemical
Conditions: ATP at apparent KM
Protocol: as §1, §2, §3, §4, §5, §6

Row | Compound | inhibition at 1 µM
7 | C=CC(=O)Nc1ccc2c(c1)n(C1CCN(Cc3ccc(-c4nc5cc[nH]c(=O)c5cc4-c4ccccc4)cc3)CC1)c(=O)n2C [24b] | 8%

Target: FGFR1 (Homo sapiens, UniProt P11362)
Sequence (P11362 22-822): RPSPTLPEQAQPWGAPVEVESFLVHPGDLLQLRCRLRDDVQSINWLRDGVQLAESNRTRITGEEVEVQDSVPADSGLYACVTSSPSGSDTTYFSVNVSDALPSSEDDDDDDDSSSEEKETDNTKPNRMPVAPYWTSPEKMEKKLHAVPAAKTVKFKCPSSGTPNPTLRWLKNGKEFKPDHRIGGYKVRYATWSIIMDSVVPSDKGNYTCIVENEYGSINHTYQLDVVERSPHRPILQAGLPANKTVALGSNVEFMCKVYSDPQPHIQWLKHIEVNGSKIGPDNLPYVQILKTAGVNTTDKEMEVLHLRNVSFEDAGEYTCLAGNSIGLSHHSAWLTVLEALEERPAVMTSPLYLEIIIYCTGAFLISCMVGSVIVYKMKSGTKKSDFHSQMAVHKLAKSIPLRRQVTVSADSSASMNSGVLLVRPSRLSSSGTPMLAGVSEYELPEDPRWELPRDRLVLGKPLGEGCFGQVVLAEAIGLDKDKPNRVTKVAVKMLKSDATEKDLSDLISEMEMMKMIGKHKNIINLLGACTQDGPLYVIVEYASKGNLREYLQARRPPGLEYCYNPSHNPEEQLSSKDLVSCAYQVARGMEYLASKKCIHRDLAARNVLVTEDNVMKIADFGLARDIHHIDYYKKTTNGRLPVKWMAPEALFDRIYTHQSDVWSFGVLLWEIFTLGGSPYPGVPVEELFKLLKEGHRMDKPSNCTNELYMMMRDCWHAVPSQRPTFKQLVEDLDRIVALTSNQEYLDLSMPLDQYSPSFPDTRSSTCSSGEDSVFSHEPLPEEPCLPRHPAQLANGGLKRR
Test: SelectScreen Z'LYTE kinase profiling
Type: biochemical
Conditions: ATP at apparent KM
Protocol: as §1, §2, §3, §4, §5, §6

Row | Compound | inhibition at 1 µM
8 | C=CC(=O)Nc1ccc2c(c1)n(C1CCN(Cc3ccc(-c4nc5cc[nH]c(=O)c5cc4-c4ccccc4)cc3)CC1)c(=O)n2C [24b] | 7%

Target: DNA-PK (Homo sapiens, UniProt P78527)
Test: SelectScreen Z'LYTE kinase profiling
Type: biochemical
Conditions: ATP at apparent KM
Protocol: as §1, §2, §3, §4, §5, §6

Row | Compound | inhibition at 1 µM
9 | C=CC(=O)Nc1ccc2c(c1)n(C1CCN(Cc3ccc(-c4nc5cc[nH]c(=O)c5cc4-c4ccccc4)cc3)CC1)c(=O)n2C [24b] | 7%

Target: MAP4K5 (KHS1) (Homo sapiens, UniProt Q9Y4K4)
Sequence (Q9Y4K4 whole entry): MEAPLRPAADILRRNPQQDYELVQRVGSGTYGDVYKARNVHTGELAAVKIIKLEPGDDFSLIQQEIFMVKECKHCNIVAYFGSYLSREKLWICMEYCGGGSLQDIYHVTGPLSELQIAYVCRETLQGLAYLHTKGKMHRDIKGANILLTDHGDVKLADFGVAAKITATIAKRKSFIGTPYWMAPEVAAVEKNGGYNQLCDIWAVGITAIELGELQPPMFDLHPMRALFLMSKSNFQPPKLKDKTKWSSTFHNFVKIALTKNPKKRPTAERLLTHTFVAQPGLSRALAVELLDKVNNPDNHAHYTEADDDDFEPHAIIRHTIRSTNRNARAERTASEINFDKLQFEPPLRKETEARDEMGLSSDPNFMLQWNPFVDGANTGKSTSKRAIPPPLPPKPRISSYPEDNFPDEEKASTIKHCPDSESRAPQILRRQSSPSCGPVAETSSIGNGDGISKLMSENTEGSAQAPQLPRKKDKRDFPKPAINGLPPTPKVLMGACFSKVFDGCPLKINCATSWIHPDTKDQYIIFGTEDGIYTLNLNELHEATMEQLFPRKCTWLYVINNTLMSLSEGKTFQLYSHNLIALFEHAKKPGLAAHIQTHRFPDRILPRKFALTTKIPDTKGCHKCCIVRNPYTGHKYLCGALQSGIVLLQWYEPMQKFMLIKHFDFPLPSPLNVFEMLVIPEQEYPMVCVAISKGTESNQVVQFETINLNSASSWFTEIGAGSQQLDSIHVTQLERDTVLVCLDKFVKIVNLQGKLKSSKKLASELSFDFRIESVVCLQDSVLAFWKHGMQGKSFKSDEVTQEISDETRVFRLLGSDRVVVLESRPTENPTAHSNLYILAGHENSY
Test: SelectScreen Z'LYTE kinase profiling
Type: biochemical
Conditions: ATP at apparent KM
Protocol: as §1, §2, §3, §4, §5, §6

Row | Compound | inhibition at 1 µM
10 | C=CC(=O)Nc1ccc2c(c1)n(C1CCN(Cc3ccc(-c4nc5cc[nH]c(=O)c5cc4-c4ccccc4)cc3)CC1)c(=O)n2C [24b] | 3%

Target: MAPKAPK2 (Homo sapiens, UniProt P49137)
Sequence (P49137 whole entry): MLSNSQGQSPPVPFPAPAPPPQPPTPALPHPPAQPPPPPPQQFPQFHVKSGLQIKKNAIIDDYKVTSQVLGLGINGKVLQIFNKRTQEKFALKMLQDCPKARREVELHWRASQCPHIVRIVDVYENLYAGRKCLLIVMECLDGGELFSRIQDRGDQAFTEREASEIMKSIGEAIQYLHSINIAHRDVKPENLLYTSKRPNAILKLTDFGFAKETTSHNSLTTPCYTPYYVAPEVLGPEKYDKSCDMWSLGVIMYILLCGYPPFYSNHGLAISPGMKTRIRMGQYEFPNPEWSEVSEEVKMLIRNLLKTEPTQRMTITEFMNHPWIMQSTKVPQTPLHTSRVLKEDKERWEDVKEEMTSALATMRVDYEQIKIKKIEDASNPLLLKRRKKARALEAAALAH
Test: SelectScreen Z'LYTE kinase profiling
Type: biochemical
Conditions: ATP at apparent KM
Protocol: as §1, §2, §3, §4, §5, §6

Row | Compound | inhibition at 1 µM
11 | C=CC(=O)Nc1ccc2c(c1)n(C1CCN(Cc3ccc(-c4nc5cc[nH]c(=O)c5cc4-c4ccccc4)cc3)CC1)c(=O)n2C [24b] | 29%

Target: GRK4 (Homo sapiens, UniProt P32298)
Sequence (P32298 whole entry): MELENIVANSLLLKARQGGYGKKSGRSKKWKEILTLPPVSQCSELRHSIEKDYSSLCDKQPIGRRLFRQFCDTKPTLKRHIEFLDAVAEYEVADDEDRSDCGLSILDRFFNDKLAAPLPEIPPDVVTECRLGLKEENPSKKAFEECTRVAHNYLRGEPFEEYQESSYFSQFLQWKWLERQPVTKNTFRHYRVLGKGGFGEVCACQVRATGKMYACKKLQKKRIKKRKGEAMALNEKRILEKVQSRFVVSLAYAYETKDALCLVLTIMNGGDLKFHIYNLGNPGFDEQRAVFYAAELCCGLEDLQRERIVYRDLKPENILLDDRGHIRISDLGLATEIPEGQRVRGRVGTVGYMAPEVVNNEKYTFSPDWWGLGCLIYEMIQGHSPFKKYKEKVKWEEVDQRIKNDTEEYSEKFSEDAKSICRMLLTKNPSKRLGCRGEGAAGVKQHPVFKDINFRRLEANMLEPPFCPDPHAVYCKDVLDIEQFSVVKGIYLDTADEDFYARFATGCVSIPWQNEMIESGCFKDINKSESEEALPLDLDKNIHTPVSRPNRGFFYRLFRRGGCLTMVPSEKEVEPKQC
Test: SelectScreen Z'LYTE kinase profiling
Type: biochemical
Conditions: ATP at apparent KM
Protocol: as §1, §2, §3, §4, §5, §6

Row | Compound | inhibition at 1 µM
12 | C=CC(=O)Nc1ccc2c(c1)n(C1CCN(Cc3ccc(-c4nc5cc[nH]c(=O)c5cc4-c4ccccc4)cc3)CC1)c(=O)n2C [24b] | -1%

Target: CDK2/cyclin A (Homo sapiens, UniProt P24941)
Test: SelectScreen Z'LYTE kinase profiling
Type: biochemical
Conditions: ATP at apparent KM
Protocol: as §1, §2, §3, §4, §5, §6

Row | Compound | inhibition at 1 µM
13 | C=CC(=O)Nc1ccc2c(c1)n(C1CCN(Cc3ccc(-c4nc5cc[nH]c(=O)c5cc4-c4ccccc4)cc3)CC1)c(=O)n2C [24b] | 7%

Target: MAPK3 (ERK1) (Homo sapiens, UniProt P27361)
Sequence (P27361 whole entry): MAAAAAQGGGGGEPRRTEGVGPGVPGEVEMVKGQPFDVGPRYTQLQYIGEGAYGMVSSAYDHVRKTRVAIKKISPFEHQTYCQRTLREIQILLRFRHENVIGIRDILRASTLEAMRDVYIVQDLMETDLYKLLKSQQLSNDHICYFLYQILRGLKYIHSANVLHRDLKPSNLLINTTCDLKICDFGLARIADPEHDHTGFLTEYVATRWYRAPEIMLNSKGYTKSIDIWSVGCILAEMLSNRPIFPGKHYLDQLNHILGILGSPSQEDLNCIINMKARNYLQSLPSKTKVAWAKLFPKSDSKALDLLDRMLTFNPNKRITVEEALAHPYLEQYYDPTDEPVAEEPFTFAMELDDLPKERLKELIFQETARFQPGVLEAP
Test: SelectScreen Z'LYTE kinase profiling
Type: biochemical
Conditions: ATP at apparent KM
Protocol: as §1, §2, §3, §4, §5, §6

Row | Compound | inhibition at 1 µM
14 | C=CC(=O)Nc1ccc2c(c1)n(C1CCN(Cc3ccc(-c4nc5cc[nH]c(=O)c5cc4-c4ccccc4)cc3)CC1)c(=O)n2C [24b] | 0%

Target: RPS6KB1 (p70S6K) (Homo sapiens, UniProt P23443)
Test: SelectScreen Z'LYTE kinase profiling
Type: biochemical
Conditions: ATP at apparent KM

Row | Compound | inhibition at 1 µM
15 | C=CC(=O)Nc1ccc2c(c1)n(C1CCN(Cc3ccc(-c4nc5cc[nH]c(=O)c5cc4-c4ccccc4)cc3)CC1)c(=O)n2C [24b] | 32%

Target: T2, JAK3 (Homo sapiens, UniProt P52333)
T2 sequence (P52333 1-1124): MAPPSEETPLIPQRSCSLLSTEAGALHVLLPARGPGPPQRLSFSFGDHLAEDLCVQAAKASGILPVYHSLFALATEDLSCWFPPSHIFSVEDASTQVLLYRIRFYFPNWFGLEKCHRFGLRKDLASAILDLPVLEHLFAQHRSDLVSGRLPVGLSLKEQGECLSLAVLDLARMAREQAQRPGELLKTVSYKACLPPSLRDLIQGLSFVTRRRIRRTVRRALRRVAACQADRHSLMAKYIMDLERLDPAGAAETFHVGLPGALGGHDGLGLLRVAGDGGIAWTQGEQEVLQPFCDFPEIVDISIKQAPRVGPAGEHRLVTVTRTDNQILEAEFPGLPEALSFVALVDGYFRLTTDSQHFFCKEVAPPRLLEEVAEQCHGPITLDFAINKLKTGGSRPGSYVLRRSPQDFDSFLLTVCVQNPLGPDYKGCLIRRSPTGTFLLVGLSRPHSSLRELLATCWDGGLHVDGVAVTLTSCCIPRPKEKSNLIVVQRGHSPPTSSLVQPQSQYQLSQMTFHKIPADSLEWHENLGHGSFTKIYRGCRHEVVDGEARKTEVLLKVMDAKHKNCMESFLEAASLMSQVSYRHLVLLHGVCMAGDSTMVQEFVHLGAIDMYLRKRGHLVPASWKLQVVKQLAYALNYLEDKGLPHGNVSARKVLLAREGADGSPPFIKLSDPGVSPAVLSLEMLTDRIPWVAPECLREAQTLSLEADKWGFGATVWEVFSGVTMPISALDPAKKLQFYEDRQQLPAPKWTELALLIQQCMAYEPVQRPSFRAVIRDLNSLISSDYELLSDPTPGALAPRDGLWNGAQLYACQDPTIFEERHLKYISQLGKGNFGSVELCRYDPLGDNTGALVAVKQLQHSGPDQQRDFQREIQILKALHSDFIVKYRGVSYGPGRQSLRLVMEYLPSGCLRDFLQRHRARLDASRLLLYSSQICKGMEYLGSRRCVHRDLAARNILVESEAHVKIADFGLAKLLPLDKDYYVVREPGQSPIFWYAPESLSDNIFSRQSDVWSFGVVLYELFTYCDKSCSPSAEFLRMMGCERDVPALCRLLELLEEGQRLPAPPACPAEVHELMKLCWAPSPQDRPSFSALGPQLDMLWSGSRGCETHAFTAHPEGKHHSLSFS
Test: SelectScreen Z'LYTE kinase profiling
Type: biochemical
Conditions: ATP at apparent KM
Protocol: as §1, §2, §3, §4, §5, §6

Row | Compound | inhibition at 1 µM
16 | C=CC(=O)Nc1ccc2c(c1)n(C1CCN(Cc3ccc(-c4nc5cc[nH]c(=O)c5cc4-c4ccccc4)cc3)CC1)c(=O)n2C [24b] | 23%
